Assay results from ChEMBL document CHEMBL5257065, “Isosteviol derivatives as protein tyrosine Phosphatase-1B inhibitors: Synthesis, biological evaluation and molecular docking” (Bioorg Med Chem, 2023).

Organism: Homo sapiens
Test: Selectivity ratio of IC50 for TCPTP (unknown origin) to IC50 for PTP1B (unknown origin) by DAS-ELISA
Conditions: not given

Row | Ratio IC50 | SMILES
1 | 3.5 | C[C@@]12CC[C@@H]3[C@@](CC[C@H]4[C@@]3(C)CCC[C@@]4(C)C(=O)OCc3ccc(Br)cc3)(CC1=O)C2
2 | 7 | CCOC(=O)[C@]1(C)CCC[C@@]2(C)[C@@H]3CC[C@@]4(C)C[C@]3(CC[C@@H]21)[C@H](Br)C4=O
3 | 3.5 | CCOC(=O)[C@]1(C)CCC[C@@]2(C)[C@@H]3CC[C@@]4(C)C[C@]3(CC[C@@H]21)C[C@H]4OC(=O)c1ccc(O)cc1
4 | 3.5 | C[C@@]12CC[C@@H]3[C@@](CC[C@H]4[C@@]3(C)CCC[C@@]4(C)C(=O)OCc3ccccc3I)(CC1=O)C2

Each compound was assayed against T1, Tyrosine-protein phosphatase non-receptor type 2 (Homo sapiens, UniProt P17706) (assay: Inhibition of TCPTP (unknown origin) by DAS-ELISA). Conditions: not given.
T1 sequence (P17706 whole entry): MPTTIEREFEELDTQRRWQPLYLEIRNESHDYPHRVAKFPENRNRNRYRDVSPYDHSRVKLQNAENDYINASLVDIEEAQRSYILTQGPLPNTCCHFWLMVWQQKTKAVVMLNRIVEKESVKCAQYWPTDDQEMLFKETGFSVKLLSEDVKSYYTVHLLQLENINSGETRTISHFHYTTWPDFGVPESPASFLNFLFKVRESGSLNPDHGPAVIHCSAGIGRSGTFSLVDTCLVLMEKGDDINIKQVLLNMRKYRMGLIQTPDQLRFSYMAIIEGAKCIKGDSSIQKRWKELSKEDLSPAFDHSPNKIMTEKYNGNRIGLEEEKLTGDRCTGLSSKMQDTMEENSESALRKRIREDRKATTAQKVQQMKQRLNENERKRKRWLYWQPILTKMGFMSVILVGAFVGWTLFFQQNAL

Row | IC50 | SMILES
5 | 3240 nM | C[C@@]12CC[C@@H]3[C@@](CC[C@H]4[C@@]3(C)CCC[C@@]4(C)C(=O)OCc3ccc(Br)cc3)(CC1=O)C2
6 | 1580 nM | C[C@@]12CC[C@@H]3[C@@](CC[C@H]4[C@@]3(C)CCC[C@@]4(C)C(=O)O)(CC1=O)C2 [ISOSTEVIOL]
7 | 1700 nM | CCOC(=O)[C@]1(C)CCC[C@@]2(C)[C@@H]3CC[C@@]4(C)C[C@]3(CC[C@@H]21)[C@H](Br)C4=O
8 | 2630 nM | CCOC(=O)[C@]1(C)CCC[C@@]2(C)[C@@H]3CC[C@@]4(C)C[C@]3(CC[C@@H]21)C[C@H]4OC(=O)c1ccc(O)cc1
9 | 1410 nM | C[C@@]12CC[C@@H]3[C@@](CC[C@H]4[C@@]3(C)CCC[C@@]4(C)C(=O)OCc3ccccc3I)(CC1=O)C2

The compounds below were run against T2, M-phase inducer phosphatase 2 (Homo sapiens, UniProt P30305) (assay: Inhibition of CDC25B (unknown origin) by DAS-ELISA). Conditions: not given.
T2 sequence (P30305 whole entry): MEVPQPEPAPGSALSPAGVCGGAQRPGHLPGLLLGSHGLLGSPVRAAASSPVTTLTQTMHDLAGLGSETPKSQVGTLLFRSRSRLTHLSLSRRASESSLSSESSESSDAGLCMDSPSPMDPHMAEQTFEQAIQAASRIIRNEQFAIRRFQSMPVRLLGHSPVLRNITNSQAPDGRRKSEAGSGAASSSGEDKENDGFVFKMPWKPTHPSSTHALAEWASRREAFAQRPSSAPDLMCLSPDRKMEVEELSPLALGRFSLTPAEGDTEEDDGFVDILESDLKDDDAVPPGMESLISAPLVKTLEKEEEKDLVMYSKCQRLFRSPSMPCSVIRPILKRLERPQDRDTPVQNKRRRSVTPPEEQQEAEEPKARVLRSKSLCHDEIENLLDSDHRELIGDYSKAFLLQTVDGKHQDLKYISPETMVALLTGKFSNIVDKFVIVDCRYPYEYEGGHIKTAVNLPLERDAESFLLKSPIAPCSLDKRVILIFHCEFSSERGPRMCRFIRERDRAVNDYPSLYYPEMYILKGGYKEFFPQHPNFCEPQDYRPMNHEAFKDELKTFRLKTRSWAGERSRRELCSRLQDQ

Row | IC50 | SMILES
10 | 3550 nM | C[C@@]12CC[C@@H]3[C@@](CC[C@H]4[C@@]3(C)CCC[C@@]4(C)C(=O)OCc3ccc(Br)cc3)(CC1=O)C2
11 | 2090 nM | C[C@@]12CC[C@@H]3[C@@](CC[C@H]4[C@@]3(C)CCC[C@@]4(C)C(=O)O)(CC1=O)C2 [ISOSTEVIOL]
12 | 3310 nM | CCOC(=O)[C@]1(C)CCC[C@@]2(C)[C@@H]3CC[C@@]4(C)C[C@]3(CC[C@@H]21)[C@H](Br)C4=O
13 | 2340 nM | CCOC(=O)[C@]1(C)CCC[C@@]2(C)[C@@H]3CC[C@@]4(C)C[C@]3(CC[C@@H]21)C[C@H]4OC(=O)c1ccc(O)cc1
14 | 3240 nM | C[C@@]12CC[C@@H]3[C@@](CC[C@H]4[C@@]3(C)CCC[C@@]4(C)C(=O)OCc3ccccc3I)(CC1=O)C2

These compounds were tested against T3, Tyrosine-protein phosphatase non-receptor type 1 (Homo sapiens) (UniProt P18031) (assay: Inhibition of PTP1B (unknown origin) at 10 micromol/L by DAS-ELISA). Conditions: dose 10.0 µmol/L.
T3 sequence (whole entry): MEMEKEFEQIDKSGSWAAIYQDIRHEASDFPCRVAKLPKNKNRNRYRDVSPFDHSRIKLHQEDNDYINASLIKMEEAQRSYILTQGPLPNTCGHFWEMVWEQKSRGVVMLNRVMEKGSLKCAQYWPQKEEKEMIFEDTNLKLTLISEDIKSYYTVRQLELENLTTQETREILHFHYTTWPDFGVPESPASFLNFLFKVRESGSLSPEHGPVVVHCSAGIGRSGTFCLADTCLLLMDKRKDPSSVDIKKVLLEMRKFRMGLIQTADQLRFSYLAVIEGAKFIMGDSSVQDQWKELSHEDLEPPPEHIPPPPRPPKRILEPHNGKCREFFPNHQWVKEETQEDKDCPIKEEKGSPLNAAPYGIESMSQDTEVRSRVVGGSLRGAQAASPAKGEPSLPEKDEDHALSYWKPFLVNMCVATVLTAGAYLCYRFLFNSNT

Row | inhibition | SMILES
15 | 76.3% | CCCOC(=O)[C@]1(C)CCC[C@@]2(C)[C@@H]3CC[C@@]4(C)C[C@]3(CC[C@@H]21)C/C4=N\O
16 | 74.2% | C[C@@]12CC[C@@H]3[C@@](CC[C@H]4[C@@]3(C)CCC[C@@]4(C)C(=O)OCCN3CCCCC3)(CC1=O)C2
17 | 70.9% | C[C@@]12CC[C@@H]3[C@@](CC[C@H]4[C@@]3(C)CCC[C@@]4(C)C(=O)OCCCCBr)(CC1=O)C2
18 | 74% | CC(=O)O[C@@H]1C[C@]23CC[C@H]4[C@@](C)(CCC[C@@]4(C)C(=O)O)[C@@H]2CC[C@@]1(C)C3
19 | 71.9% | C[C@@]12CC[C@@H]3[C@@](CC[C@H]4[C@@]3(C)CCC[C@@]4(C)C(=O)OCCCCCBr)(CC1=O)C2
20 | 43.8% | C[C@@]12CC[C@@H]3[C@@](CC[C@H]4[C@@]3(C)CCC[C@@]4(C)C(=O)OCc3ccccc3Cl)(CC1=O)C2
21 | 67.2% | CCOC(=O)[C@]1(C)CCC[C@@]2(C)[C@@H]3CC[C@@]4(C)C[C@]3(CC[C@@H]21)C[C@H]4O
22 | 79.6% | C[C@@]12CC[C@@H]3[C@@](CC[C@H]4[C@@]3(C)CCC[C@@]4(C)C(=O)OCc3ccc(Br)cc3)(CC1=O)C2
23 | 71.5% | CCOC(=O)[C@]1(C)CCC[C@@]2(C)[C@@H]3CC[C@@]4(C)C[C@]3(CC[C@@H]21)C/C4=N\OC
24 | 22% | COC(=O)[C@]1(C)CCC[C@@]2(C)[C@@H]3CC[C@@]4(C)C[C@]3(CC[C@@H]21)C/C4=N\O
25 | 63.6% | C[C@@]12CC[C@@H]3[C@@](CC[C@H]4[C@@]3(C)CCC[C@@]4(C)C(=O)O)(CC1=O)C2 [ISOSTEVIOL]
26 | 81.7% | CCOC(=O)[C@]1(C)CCC[C@@]2(C)[C@@H]3CC[C@@]4(C)C[C@]3(CC[C@@H]21)[C@H](Br)C4=O
27 | 78.5% | C[C@@]12CC[C@@H]3[C@@](CC[C@H]4[C@@]3(C)CCC[C@@]4(C)C(=O)OCCN3CCNCC3)(CC1=O)C2
28 | 36.2% | C[C@@]12CC[C@@H]3[C@@](CC[C@H]4[C@@]3(C)CCC[C@@]4(C)C(=O)O)(C[C@H]1O)C2
29 | 79% | CCOC(=O)[C@]1(C)CCC[C@@]2(C)[C@@H]3CC[C@@]4(C)C[C@]3(CC[C@@H]21)C[C@H]4OC(=O)c1ccc(O)cc1
30 | 75.5% | CCOC(=O)[C@]1(C)CCC[C@@]2(C)[C@@H]3CC[C@@]4(C)C[C@]3(CC[C@@H]21)C[C@H]4OC(=O)c1ccccc1
31 | 71.8% | Cc1ccc(COC(=O)[C@]2(C)CCC[C@@]3(C)[C@@H]4CC[C@@]5(C)C[C@]4(CC[C@@H]32)CC5=O)cc1
32 | 77.7% | C[C@@]12CC[C@@H]3[C@@](CC[C@H]4[C@@]3(C)CCC[C@@]4(C)C(=O)OCCCCN3CCCCC3)(CC1=O)C2
33 | 50.8% | CCOC(=O)[C@]1(C)CCC[C@@]2(C)[C@@H]3CC[C@@]4(C)C[C@]3(CC[C@@H]21)C/C4=N\O
34 | 76% | C[C@@]12CC[C@@H]3[C@@](CC[C@H]4[C@@]3(C)CCC[C@@]4(C)C(=O)OCc3cccc(C#N)c3)(CC1=O)C2
35 | 61.9% | CCCOC(=O)[C@]1(C)CCC[C@@]2(C)[C@@H]3CC[C@@]4(C)C[C@]3(CC[C@@H]21)CC4=O
36 | 61.9% | C[C@@]12CC[C@@H]3[C@@](CC[C@H]4[C@@]3(C)CCC[C@@]4(C)C(=O)O)(C/C1=N\O)C2
37 | 82.6% | C[C@@]12CC[C@@H]3[C@@](CC[C@H]4[C@@]3(C)CCC[C@@]4(C)C(=O)OCc3ccccc3I)(CC1=O)C2
38 | 50.3% | C[C@@]12CC[C@@H]3[C@@](CC[C@H]4[C@@]3(C)CCC[C@@]4(C)C(=O)OCc3ccccc3Br)(CC1=O)C2
39 | 73.6% | C[C@@]12CC[C@@H]3[C@@](CC[C@H]4[C@@]3(C)CCC[C@@]4(C)C(=O)OCCBr)(CC1=O)C2
40 | 75.3% | Cc1ccc(S(=O)(=O)N/N=C2/C[C@]34CC[C@H]5[C@@](C)(CCC[C@@]5(C)C(=O)O)[C@@H]3CC[C@@]2(C)C4)cc1
41 | 52.4% | C[C@@]12CC[C@@H]3[C@@](CC[C@H]4[C@@]3(C)CCC[C@@]4(C)C(=O)OCc3ccccc3)(CC1=O)C2
42 | 73.9% | CCOC(=O)[C@]1(C)CCC[C@@]2(C)[C@@H]3CC[C@@]4(C)C[C@]3(CC[C@@H]21)CC4=O
43 | 70.1% | COC(=O)[C@]1(C)CCC[C@@]2(C)[C@@H]3CC[C@@]4(C)C[C@]3(CC[C@@H]21)CC4=O

Organism: Homo sapiens
Test: Selectivity ratio of IC50 for CDC25B (unknown origin) to IC50 for PTP1B (unknown origin) by DAS-ELISA
Conditions: not given

Row | Ratio IC50 | SMILES
44 | 6 | C[C@@]12CC[C@@H]3[C@@](CC[C@H]4[C@@]3(C)CCC[C@@]4(C)C(=O)OCc3ccc(Br)cc3)(CC1=O)C2
45 | 14 | CCOC(=O)[C@]1(C)CCC[C@@]2(C)[C@@H]3CC[C@@]4(C)C[C@]3(CC[C@@H]21)[C@H](Br)C4=O
46 | 6 | CCOC(=O)[C@]1(C)CCC[C@@]2(C)[C@@H]3CC[C@@]4(C)C[C@]3(CC[C@@H]21)C[C@H]4OC(=O)c1ccc(O)cc1
47 | 6 | C[C@@]12CC[C@@H]3[C@@](CC[C@H]4[C@@]3(C)CCC[C@@]4(C)C(=O)OCc3ccccc3I)(CC1=O)C2

Each compound was assayed against T4, Tyrosine-protein phosphatase non-receptor type 1 (Homo sapiens, UniProt P18031) (assay: Inhibition of PTP1B (unknown origin) by DAS-ELISA). Conditions: not given.
T4 sequence (P18031 whole entry): T3 sequence (whole entry)

Row | IC50 | SMILES
48 | 330 nM | C[C@@]12CC[C@@H]3[C@@](CC[C@H]4[C@@]3(C)CCC[C@@]4(C)C(=O)OCc3ccc(Br)cc3)(CC1=O)C2
49 | 2270 nM | C[C@@]12CC[C@@H]3[C@@](CC[C@H]4[C@@]3(C)CCC[C@@]4(C)C(=O)O)(CC1=O)C2 [ISOSTEVIOL]
50 | 240 nM | CCOC(=O)[C@]1(C)CCC[C@@]2(C)[C@@H]3CC[C@@]4(C)C[C@]3(CC[C@@H]21)[C@H](Br)C4=O
51 | 800 nM | C[C@@]12CC[C@@H]3[C@@](CC[C@H]4[C@@]3(C)CCC[C@@]4(C)C(=O)OCCN3CCNCC3)(CC1=O)C2
52 | 360 nM | CCOC(=O)[C@]1(C)CCC[C@@]2(C)[C@@H]3CC[C@@]4(C)C[C@]3(CC[C@@H]21)C[C@H]4OC(=O)c1ccc(O)cc1
53 | 400 nM | C[C@@]12CC[C@@H]3[C@@](CC[C@H]4[C@@]3(C)CCC[C@@]4(C)C(=O)OCc3ccccc3I)(CC1=O)C2
